From patent publication US20150165000A1, “COMPOSITION FOR THERMOSTABILIZATION OF HUMAN SERUM ALBUMIN AND METHOD OF PREPARING THERMALLY STABILIZED HUMAN SERUM ALBUMIN USING THE SAME” (Ewha University - Industry Collaboration Foundation, priority 2012, published 2015)

What was measured:
human serum albumin [1] = target: T1, human serum albumin (Homo sapiens, UniProt P02768); assay: Structural stability against thermal treatment: secondary structure composition from circular dichroism; format: physicochemical; conditions: for structural stability (ratio of α-helix / circular dichroism spectrum), in words / structural stability (ratio of α-helix by circular dichroism), in words: albumin 1 mg/mL
T1 construct: the single supply source of human serum albumin is currently the blood of humans; purchased Sigma-Aldrich A3782
T1 sequence (P02768 25-609): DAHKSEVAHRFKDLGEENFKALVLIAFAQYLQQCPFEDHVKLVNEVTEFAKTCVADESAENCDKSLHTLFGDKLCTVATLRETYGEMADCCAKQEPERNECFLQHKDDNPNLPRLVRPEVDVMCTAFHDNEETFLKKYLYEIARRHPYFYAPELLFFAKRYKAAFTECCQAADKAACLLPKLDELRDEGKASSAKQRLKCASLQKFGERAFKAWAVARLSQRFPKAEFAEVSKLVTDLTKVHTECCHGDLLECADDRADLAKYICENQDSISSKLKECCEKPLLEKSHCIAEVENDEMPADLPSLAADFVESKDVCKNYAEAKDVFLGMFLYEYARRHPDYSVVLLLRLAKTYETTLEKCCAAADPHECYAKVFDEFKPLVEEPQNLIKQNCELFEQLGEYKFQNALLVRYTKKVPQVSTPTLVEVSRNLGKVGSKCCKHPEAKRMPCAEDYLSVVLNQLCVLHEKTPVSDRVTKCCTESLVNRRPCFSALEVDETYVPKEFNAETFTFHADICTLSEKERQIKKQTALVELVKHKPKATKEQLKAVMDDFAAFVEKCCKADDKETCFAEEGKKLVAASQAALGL
Experimental: The composition of the secondary structure of protein may be estimated using circular dichroism, and thus changes in structure of the thermally denatured protein may be measured.
Measurement of circular dichroism was performed three times under conditions of a data pitch of 0.2 nm, a band width of 1.0 nm, a response time of 4 sec, and a scanning speed of 50 nm/min using a quartz cuvette having a path length of 0.1 cm by use of Jasco J-715 spectropolarimeter. The composition of the secondary structure was assayed from the measured circular dichroism values using SELCON3 program contained in the Dicroprot program.

human serum albumin [2] = target: T1, human serum albumin; assay: Thermal denaturation of human serum albumin solution: check of precipitation during heating; format: physicochemical
Experimental: Thus, the present inventors estimated oleic acid affecting stability depending on the temperature. […] Specifically, while the temperature was maintained at 65° C., 70° C. and 75° C., whether the precipitation was formed due to denaturation of protein was checked at intervals of 30 min, 5 min and 3 min, respectively.
Thermostabilizing effects were evaluated at 70° C. using other C18 fatty acids including stearic acid, linoleic acid, α-linolenic acid and γ-linolenic acid, as well as oleic acid, in the same manner as in Example 6.1. for testing of stability against denaturation due to thermal treatment using oleic acid.
Thermostabilizing effects at 65° C. were evaluated using C16 fatty acids including palmitic acid and palmitoleic acid, as well as oleic acid as the C18 fatty acid, in the same manner as in Examples 6.1. and 6.2. for testing of stability against degeneration due to thermal treatment using various C18 fatty acids including oleic acid. The samples were warmed to 65° C. and observed at an interval of 5 min.
Thermostabilizing effects at 65° C. were evaluated using EPA (eicosapentaenoic acid) and DHA (docosahexanoic acid) as C20 and C22 fatty acids, as well as oleic acid as the C18 fatty acid, in the same manner as in Examples 6.1. to 6.3. for testing of stability against denaturation due to thermal treatment using various C16 and C18 fatty acids.

CCCCCCC=CCCCCCCCC(=O)O [palmitoleic acid, hexadec-9-enoic acid] was tested, and the “structural stability (ratio of α-helix / circular dichroism spectrum), in words” value (human serum albumin [1]; heated at 70° C. for 10 hr) was “maintained”.

With CC/C=C\C/C=C\C/C=C\C/C=C\C/C=C\C/C=C\CCC(=O)O [DHA, (4Z,7Z,10Z,13Z,16Z,19Z)-docosa-4,7,10,13,16,19-hexaenoic acid] the “stability against denaturation due to thermal treatment compared to the human serum albumin control” value (human serum albumin [2]; 65° C., albumin 50 mg/mL, Examples 6.3, 6.4) was “much higher”.

For CCCCC/C=C\C/C=C\C/C=C\CCCCC(=O)O [γ-linolenic acid], the “structural stability (ratio of α-helix / circular dichroism spectrum), in words” value (human serum albumin [1]; heated at 70° C. for 10 hr) was “maintained”.

In the case of CC/C=C\C/C=C\C/C=C\CCCCCCCC(=O)O [α-linolenic acid, all-cis-9,12,15-octadecatrienoic acid], the “structural stability (ratio of α-helix / circular dichroism spectrum), in words” value (human serum albumin [1]; heated at 70° C. for 10 hr) is reported as “maintained”.

With CCCCCCCC/C=C\CCCCCCCC(=O)O [oleic acid] the “time for which denaturation was not observed” value (human serum albumin [2]; 60° C., albumin 50 mg/mL, fatty acid 1:1) was no less than 10 h, the “time for which denaturation did not occur” value (human serum albumin [2]; 65° C., albumin 50 mg/mL, fatty acid 1:1) was “about 6 hr” and the “time after which precipitation began to form” value (human serum albumin [2]; 65° C., albumin 50 mg/mL, Example 6.1) was 330 min. The “period of time maintained stably compared to the fatty acid-free human serum albumin solution” value (human serum albumin [2]; 70° C.) was “two times as long or more”, the “time after which precipitation began to form” value (human serum albumin [2]; 70° C., albumin 50 mg/mL, Example 6.1) was 30 min and the “difference between the control and the test group” value (human serum albumin [2]; 75° C., albumin 50 mg/mL, Example 6.1) was “no difference”. For the same compound, the “structural stability (ratio of α-helix by circular dichroism), in words” value (human serum albumin [1]; heated at 60° C. for 10 hr) was “maintained”, the “structural stability (ratio of α-helix / circular dichroism spectrum), in words” value (human serum albumin [1]; heated at 70° C. for 10 hr) was “maintained” and the “structural stability (circular dichroism spectrum), in words” value (human serum albumin [1]; heated at 70° C. for 10 hr, albumin 1 to 40 mg/mL, Example 8) was “stability thereof was maintained”. For the same compound, the “structural stability (ratio of α-helix by circular dichroism), in words” value (human serum albumin [1]; heated at 80° C. for 10 hr) was “deteriorated”.

CCCCC/C=C\C/C=C\CCCCCCCC(=O)O [linoleic acid] was tested, and the “structural stability (ratio of α-helix / circular dichroism spectrum), in words” value (human serum albumin [1]; heated at 70° C. for 10 hr) was “maintained”.
